Laboratory results taken from ChEMBL document CHEMBL1151233, “Biotransformation of imperatorin by Aspergillus flavus” (J Nat Prod, 2004).

Tests used:
Hepatitis B virus [1] = assay: Antiviral activity against hepatitis B virus infected in human MS-G2 cells assessed as inhibition of surface antigen production at 10 uM after 48 hrs; type: functional; details: MS-G2, 48 h
Hepatitis B virus [2] = assay: Antiviral activity against hepatitis B virus infected in human MS-G2 cells assessed as inhibition of e-antigen production at 100 uM after 48 hrs; type: functional; details: MS-G2, 48 h
Hepatitis B virus [3] = assay: Antiviral activity against hepatitis B virus infected in human MS-G2 cells assessed as inhibition of e-antigen production at 50 uM after 48 hrs; type: functional; details: MS-G2, 48 h
Hepatitis B virus [4] = assay: Antiviral activity against hepatitis B virus infected in human MS-G2 cells assessed as inhibition of e-antigen production at 10 uM after 48 hrs; type: functional; details: MS-G2, 48 h
[5] = Cytotoxicity against human MS-G2 cells at 100 uM by MTT assay; type: cell-based; details: read-out: INH
[6] = Cytotoxicity against human MS-G2 cells at 50 uM by MTT assay; type: cell-based; details: read-out: INH
[7] = Cytotoxicity against human MS-G2 cells at 10 uM by MTT assay; type: cell-based; details: read-out: INH
Hepatitis B virus [8] = assay: Antiviral activity against hepatitis B virus infected in human MS-G2 cells assessed as inhibition of surface antigen production at 100 uM after 48 hrs; type: functional; details: MS-G2, 48 h
Hepatitis B virus [9] = assay: Antiviral activity against hepatitis B virus infected in human MS-G2 cells assessed as inhibition of surface antigen production at 50 uM after 48 hrs; type: functional; details: MS-G2, 48 h

## C/C(=C/COc1c2occc2cc2ccc(=O)oc12)C(=O)O
Hepatitis B virus [1]
  inhibition at 10 µM: 13.2%
Hepatitis B virus [2]
  inhibition at 100 µM: 12.5%
Hepatitis B virus [3]
  inhibition at 50 µM: 1.6%
Hepatitis B virus [4]
  inhibition at 10 µM: 0.7%
[5]
  cytotoxicity at 100 µM: 14.7%
[6]
  cytotoxicity at 50 µM: 18.4%
[7]
  cytotoxicity at 10 µM: 11.7%
Hepatitis B virus [8]
  inhibition at 100 µM: 27%
Hepatitis B virus [9]
  inhibition at 50 µM: 12.3%

## C/C(=C\COc1c2occc2cc2ccc(=O)oc12)CO
Hepatitis B virus [1]
  inhibition at 10 µM: 20.9%
Hepatitis B virus [2]
  inhibition at 100 µM: 29%
Hepatitis B virus [3]
  inhibition at 50 µM: 16.5%
Hepatitis B virus [4]
  inhibition at 10 µM: 8%
[5]
  cytotoxicity at 100 µM: 10.3%
[6]
  cytotoxicity at 50 µM: 3.4%
[7]
  cytotoxicity at 10 µM: 13%
Hepatitis B virus [8]
  inhibition at 100 µM: 61.3%
Hepatitis B virus [9]
  inhibition at 50 µM: 37.4%

## CC(C)=CCOc1c2occc2cc2ccc(=O)oc12 [PENTOSALEN]
Hepatitis B virus [1]
  inhibition at 10 µM: 14.9%
Hepatitis B virus [2]
  inhibition at 100 µM: 34.3%
Hepatitis B virus [3]
  inhibition at 50 µM: 22.5%
Hepatitis B virus [4]
  inhibition at 10 µM: 3.8%
[5]
  cytotoxicity at 100 µM: -8.7%
[6]
  cytotoxicity at 50 µM: 8.9%
[7]
  cytotoxicity at 10 µM: 11%
Hepatitis B virus [8]
  inhibition at 100 µM: 68.4%
Hepatitis B virus [9]
  inhibition at 50 µM: 55.3%

## O=c1ccc2cc3ccoc3c(O)c2o1 [XANTHOTOXOL]
Hepatitis B virus [1]
  inhibition at 10 µM: 5.2%
Hepatitis B virus [2]
  inhibition at 100 µM: 0.7%
Hepatitis B virus [3]
  inhibition at 50 µM: 2.7%
Hepatitis B virus [4]
  inhibition at 10 µM: -5%
[5]
  cytotoxicity at 100 µM: 17%
[6]
  cytotoxicity at 50 µM: 12.2%
[7]
  cytotoxicity at 10 µM: 7.8%
Hepatitis B virus [8]
  inhibition at 100 µM: 19.8%
Hepatitis B virus [9]
  inhibition at 50 µM: 10.5%

## C/C(=C/COc1c2occc2cc2ccc(=O)oc12)CO [Z-trichoclin]
Hepatitis B virus [1]
  inhibition at 10 µM: 13.6%
Hepatitis B virus [2]
  inhibition at 100 µM: 12.4%
Hepatitis B virus [3]
  inhibition at 50 µM: 11.9%
Hepatitis B virus [4]
  inhibition at 10 µM: 8.2%
[5]
  cytotoxicity at 100 µM: 12.6%
[6]
  cytotoxicity at 50 µM: 15%
[7]
  cytotoxicity at 10 µM: 18%
Hepatitis B virus [8]
  inhibition at 100 µM: 45.2%
Hepatitis B virus [9]
  inhibition at 50 µM: 34.6%
